# From patent US20050004126A1 (priority 2001, published 2005)
# Where “and” joins values, the source holds several entries; their conditions need not be identical. Equal entries are not always repeated.
# Target: MMP-13CD (catalytic domain of collagenase 3) (Homo sapiens, UniProt P45452)
# Experiment: Thiopeptolide hydrolysis assay, MMP-13;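 further: inhibition of enzymatic thiopeptolide substrate cleavage (100 µM) in pH 6.0 MES buffer with CaCl2 and DTNB, comparing hydrolysis with versus without inhibitor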
# Conditions: IC50 μM, Table V; MMP-13
# Protocol: They measure the amount by which a test compound reduces the hydrolysis of a thiopeptolide substrate caused by a matrix metalloproteinase enzyme.
# Thiopeptolide substrates show virtually no decomposition or hydrolysis in the absence of a matrix metalloproteinase enzyme. A typical thiopeptolide substrate commonly utilized for assays is Ac-Pro-Leu-Gly-thioester-Leu-Leu-Gly-OEt. A 100 μL assay mixture will contain 50 mM of 2-morpholinoethane sulfonic acid monohydrate (MES, pH 6.0) 10 mM CaCl2, 100 μM thiopeptolide substrate, and 1 mM 5,5′-dithio-bis-(2-nitro-benzoic acid) (DTNB). […] Assays are carried out with and without matrix metalloproteinase inhibitor compounds, and the amount of hydrolysis is compared for a determination of inhibitory activity of the test compounds.
row,IC50,Structure (SMILES)
1,0.0062 µM,"O=C(O)Cc1ccc(Cn2c(=O)c3cc(C(=O)NCc4ccncc4)ccc3n3cnnc23)cc1 [(4-{7-[(Pyridin-4-yl)-methylcarbamoyl]-5-oxo-5H-[1,2,4]triazolo[4,3-a]quinazolin-4-ylmethyl}-phenyl)-acetic acid]"
2,0.004 µM,"O=C(NCc1ccc2c(c1)OCO2)c1ccc2c(c1)c(=O)n(Cc1ccccc1)c1nncn21 [Synthesis Example 57, N-(3,4-Methylenedioxybenzyl)-4-benzyl-5-oxo-4H-[1,2,4]triazolo[4,3-a]quinazol-7-ylcarboxamide]"
3,0.0029 µM,"COC(=O)Cc1ccc(Cn2c(=O)c3cc(C(=O)NCc4ccc(OC)cc4)ccc3n3cnnc23)cc1 [Methyl (4-{7-[(4-methoxy)-benzylcarbamoyl]-5-oxo-5H-[1,2,4]triazolo[4,3-a]quinazolin-4-ylmethyl}-phenyl)-acetate]"
4,0.35 µM,"O=C(NCc1ccncc1)c1ccc2c(c1)c(=O)n(C/C=C/c1ccncc1)c1nncn21 [N-(pyridin-4-ylmethyl) 4-[3-(pyridin-4-yl)-2-propen-1-yl]-5-oxo-4H-[1,2,4]triazolo[4,3-a]quinazol-7-ylcarboxamide]"
5,0.013 µM,"COC(=O)Cc1ccc(Cn2c(=O)c3cc(C(=O)NCc4ccncc4)ccc3n3cnnc23)cc1 [Methyl (4-{7-[(pyridin-4-yl)-methylcarbamoyl]-5-oxo-5H-[1,2,4]triazolo[4,3-a]quinazolin-4-ylmethyl}-phenyl)-acetate]"
6,0.185 µM,"O=C(NCCCSc1ccncc1)c1ccc2c(c1)c(=O)n(Cc1ccccc1)c1nncn21 [N-[3-(4-Pyridylsulphanyl)propyl]-4-benzyl-5-oxo-4,5-dihydro[1,2,4]triazolo[4,3-a]quinazoline-7-carboxamide]"

row,Structure (SMILES),IC50
1,"O=C(OCc1ccncc1)c1ccc2c(c1)c(=O)n(Cc1ccccc1)c1nncn21 [Synthesis Example 56, 4-Pyridylmethyl 4-benzyl-5-oxo-4H-[1,2,4]triazolo[4,3-a]quinazol-7-yl-carboxylate]",0.0023 µM

# Same assay, conditions: IC50 μM, Table VII; MMP-13
row,IC50,Structure (SMILES)
1,1.34 µM,"Cn1c(=O)n(Cc2ccc(C(=O)O)cc2)c(=O)c2cc(C#Cc3ccccc3)ccc21 [Synthesis Example 75, 4-(1-Methyl-2,4-dioxo-6-(2-phenylethynyl)-1,4-dihydro-2H-quinazolin-3-ylmethyl)-benzoic acid]"
2,0.001 µM,"O=C(O)c1ccc(Cn2c(=O)c3cc(C#CCc4ccccc4)ccc3n3cnnc23)cc1 [Synthesis Example 74, 4-[5-Oxo-7-(3-phenyl-prop-1-ynyl)-5H-[1,2,4]triazolo[4,3-a]quinazolin-4-ylmethyl]-benzoic acid]"

# Same assay, conditions: MMP 13 IC50 μM, Table III
row,IC50,Structure (SMILES)
1,8 µM,CCOc1ccccc1COC(=O)c1cc2c(=O)n(Cc3ccc(C(=O)O)cc3)c(=O)n(C)c2s1
2,0.15 µM,COC(=O)CCCCn1c(=O)c2cc(C(=O)OCc3ccccc3)sc2n(C)c1=O
3,1.7 µM,COc1cccc(CNC(=O)c2cc3c(=O)n(CS(=O)(=O)Cc4ccccc4)c(=O)n(C)c3s2)c1

# Same assay, conditions: MMP13 IC50 μM, Table IVb
row,Structure (SMILES),IC50
1,COc1ccc(CNC(=O)c2ccc3c(c2)c(=O)n(C/C=C/c2ccncc2)c(=O)n3C)cc1,0.035 µM
2,COc1ccc(CNC(=O)c2ccc3c(c2)c(=O)n(Cc2cccc(C#N)c2)c(=O)n3C)cc1,0.027 µM
3,COc1ccc(CNC(=O)c2ccc3c(c2)c(=O)n(CC=CC(=O)O)c(=O)n3C)cc1,1.4 µM
4,COCCn1c(=O)c2cc(C(=O)NCc3ccc(OC)cc3)ccc2n(C)c1=O,1.35 µM
5,Cn1c(=O)n(Cc2ccc(F)c(F)c2)c(=O)c2cc(C(=O)NCc3cccnc3)ccc21,0.067 µM
6,COC(=O)c1ccc(Cn2c(=O)c3cc(C(=O)NCc4ccc(OC)cc4)ccc3n(C)c2=O)cc1OC,0.05 µM
7,Cn1c(=O)n(Cc2ccc(F)c(Cl)c2)c(=O)c2cc(C(=O)NCc3ccncc3)ccc21,0.026 µM
8,"COC(=O)c1ccc(Cn2c(=O)c3cc(C(=O)NCc4ccc(OC)cc4)ncc3n(C)c2=O)cc1 [Methyl 4-[6-(4-Methoxy-benzylcarbamoyl)-1-methyl-2,4-dioxo-1,4-dihydro-2H-pyrido[3,4-d]pyrimidin-3-ylmethyl]-benzoate]",0.0017 µM
9,COC(=O)c1ccc(Cn2c(=O)[nH]c3ccc(C(=O)NCc4ccc(OC)cc4)cc3c2=O)cc1,0.009 µM
10,COc1ccc(CNC(=O)c2ccc3[nH]c(=O)n(Cc4ccc(N(C)C)cc4)c(=O)c3c2)cc1,0.075 µM
11,Cn1c(=O)n(Cc2ccccc2)c(=O)c2cc(C(=O)OC/C=C/c3ccncc3)ccc21,0.385 µM
12,COc1cc(CNC(=O)c2ccc3c(c2)c(=O)n(Cc2ccc(Br)cc2)c(=O)n3C)ccn1,0.0076 µM
13,O=C(O)Cn1c(=O)n(Cc2ccccc2)c(=O)c2cc(C(=O)NCc3ccc4c(c3)OCO4)ccc21,0.105 µM
14,COc1cc(CNC(=O)c2ccc3c(c2)c(=O)n(Cc2cccc(F)c2)c(=O)n3C)ccn1,0.0058 µM
15,"Cn1c(=O)n(Cc2ccccc2)c(=O)c2cc(C(=O)NCc3ccc4c(c3)OCO4)cnc21 [3-Benzyl-1-methyl-2,4-dioxo-1,2,3,4-tetrahydro-pyrido[2,3-d] pyrimidine-6-carboxylic acid (1,3-benzodioxol-5-ylmethyl)-amide]",0.007 µM
16,"COc1ccc(CNC(=O)c2cnc3c(c2)c(=O)n(Cc2ccc(C#N)cc2)c(=O)n3C)cc1 [3-(4-Cyano-benzyl)-1-methyl-2,4-dioxo-1,2,3,4-tetrahydro-pyrido[2,3-d] pyrimidine-6-carboxylic acid 4-methoxy-benzylamide]",0.016 µM
17,COc1ccc(CNC(=O)c2ccc3c(c2)c(=O)n(CC2CCCN(C)C2)c(=O)n3C)cc1 (stereo not shown),5.4 µM
18,COC(=O)c1ccccc1-c1ccc(Cn2c(=O)c3cc(C(=O)NCc4ccc(OC)cc4)ccc3n(C)c2=O)cc1,0.084 µM
19,Cn1c(=O)n(Cc2ccccc2)c(=O)c2cc(C(=O)OC/C=C/c3cccnc3)ccc21,0.34 µM
20,CCn1c(=O)n(Cc2cccc(F)c2)c(=O)c2cc(C(=O)NCc3ccncc3)ccc21,0.1 µM
21,COc1ccc(CNC(=O)c2ccc3c(c2)c(=O)n(Cc2ccc4nonc4c2)c(=O)n3C)cc1,0.018 µM
22,COc1ccc(CNC(=O)c2ccc3c(c2)c(=O)n(CCCC(=O)O)c(=O)n3C)cc1,1.15 µM
23,COc1ccc(CNC(=O)c2ccc3c(c2)c(=O)n(CC2CC2)c(=O)n3C)cc1,0.95 µM

# Other lines, results leading:
row,IC50,Structure (SMILES)
1,0.0043 µM,COC(=O)c1ccc(Cn2c(=O)c3cc(C(=O)NCc4ccc(OC)cc4)ccc3n(C)c2=O)cc1O
2,0.0093 µM,COc1ccc(CNC(=O)c2ccc3c(c2)c(=O)n(Cc2ccc(N)cc2)c(=O)n3C)cc1
3,0.051 µM,Cn1c(=O)n(Cc2ccncc2)c(=O)c2cc(C(=O)NCc3ccc(O)cc3)ccc21
4,0.053 µM,Cn1c(=O)n(Cc2ccc(Cl)cc2)c(=O)c2cc(C(=O)NCc3ccncc3)ccc21
5,0.00074 µM,COc1ccc(CNC(=O)c2cc3c(=O)n(Cc4ccc(C(=O)O)cc4)c(=O)n(C)c3cn2)cc1
6,0.007 µM,COc1ccc(CNC(=O)c2ccc3c(c2)c(=O)n(Cc2ccc(S(=O)(=O)N(C)C)cc2)c(=O)n3C)cc1
7,0.0077 µM,COC(=O)c1ccc(Cn2c(=O)c3cc(C(=O)NCc4ccc(OC)cc4)ccc3n(C)c2=O)cc1C
8,0.0034 µM,COC(=O)Cc1ccc(Cn2c(=O)c3cc(C(=O)NCc4ccc(OC)cc4)ccc3n(C)c2=O)cc1
9,0.0033 µM,COc1ccc(CNC(=O)c2ccc3c(c2)c(=O)n(Cc2ccc(C4(C(=O)O)CC4)cc2)c(=O)n3C)cc1
10,0.093 µM,Cn1c(=O)n(Cc2ccc(Cl)cc2)c(=O)c2cc(C(=O)NCc3cccnc3)ccc21
11,0.028 µM,COc1ccc(CNC(=O)c2ccc3c(c2)c(=O)n(Cc2ccc(N(C)C)cc2)c(=O)n3C)cc1
12,0.0011 µM,COc1cccc(CNC(=O)c2cc3c(=O)n(Cc4ccc(C(=O)O)cc4)c(=O)n(C)c3cn2)c1
13,0.003 µM,COC(=O)c1ccc(Cn2c(=O)c3cc(C(=O)NCc4cccc(OC)c4)ccc3n(C)c2=O)cc1
14,0.0098 µM,COc1ccc(CNC(=O)c2ccc3c(c2)c(=O)n(Cc2ccc(F)c(F)c2)c(=O)n3C)cc1
15,0.003 µM,Cn1c(=O)n(Cc2ccc(C(=O)O)cc2)c(=O)c2cc(C(=O)NCc3ccc4nonc4c3)ccc21
16,0.009 µM,COc1ccc(CNC(=O)c2ccc3c(c2)c(=O)n(Cc2ccc(NC(C)=O)cc2)c(=O)n3C)cc1
17,0.023 µM,COC(=O)c1ccc(Cn2c(=O)c3cc(C(=O)NCc4ccncc4)ccc3n(C)c2=O)cc1
18,0.0022 µM,COc1ccc(CNC(=O)c2ccc3c(c2)c(=O)n(Cc2ccc(CC(=O)O)cc2)c(=O)n3C)cc1
19,0.0029 µM,CSc1ccc(CNC(=O)c2ccc3c(c2)c(=O)n(Cc2ccc(C(=O)O)cc2)c(=O)n3C)cc1
20,0.1 µM,COC(=O)c1ccc(Cn2c(=O)c3cc(C(=O)NCc4cc[n+]([O-])cc4)ccc3n(C)c2=O)cc1
21,0.013 µM,COc1ccc(CNC(=O)c2ccc3c(c2)c(=O)n(Cc2ccc(-c4ccccc4C(=O)O)cc2)c(=O)n3C)cc1
22,8 µM,COc1ccc(CNC(=O)c2ccc3c(c2)c(=O)n(-c2ccc(CC(=O)O)cc2)c(=O)n3C)cc1
23,0.004 µM,COc1ccc(CNC(=O)c2ccc3c(c2)c(=O)n(Cc2ccc(C(=O)O)c(Cl)c2)c(=O)n3C)cc1
24,0.053 µM,Cn1c(=O)n(Cc2ccc(C#N)cc2)c(=O)c2cc(C(=O)NCc3ccncc3)ccc21

# Same assay, conditions: MMP13 IC50 (nM), Table II
row,IC50,Structure (SMILES)
1,8.7 µM,COc1ccc(C(=O)NCc2ccccc2)cc1C(=O)NCCOc1ccccc1
2,0.66 µM,"O=C(OCc1ccc2c(c1)OCO2)c1cccc(C(=O)OCc2ccc3c(c2)OCO3)c1 [Isophthalic acid bis-(1,3-benzodioxol-5-ylmethyl) ester]"
3,0.2 µM and 0.19 µM,"COc1ccc(CNC(=O)c2cc(C(=O)NCc3ccc4c(c3)OCO4)ccc2OC)cc1 [N-1,3-Benzodioxol-5-ylmethyl-4-methoxy-N′-(4-methoxy-benzyl)-isophthalamide]"
4,4.4 µM,COc1ccc(C(=O)NCc2ccc3c(c2)OCO3)cc1C(=O)NCCOc1ccccc1

# Same assay, conditions: MMP13 IC50 (μM), Table 1b
row,IC50,Structure (SMILES)
1,0.092 µM,CCC#CCn1c(=O)c(C)c2sc(C(=O)NCc3ccc(F)cc3)cn2c1=O
2,0.645 µM,Cc1c(=O)n(CCS(=O)(=O)c2ccc(F)cc2)c(=O)n2cc(C(=O)NCc3ccc(F)cc3)sc12
3,0.82 µM,CC(C)=CCn1c(=O)c(C)c2sc(C(=O)NCc3ccc(F)cc3)cn2c1=O
4,0.53 µM,C/C=C/Cn1c(=O)c(C)c2sc(C(=O)NCc3ccc(F)cc3)cn2c1=O
